Test results: ChEMBL document CHEMBL3132812, “Metabolism-guided drug design” (Medchemcomm, 2013)

Key:
[1] = target: Prothrombin (Homo sapiens, UniProt P00734); assay: Inhibition of thrombin (unknown origin)
[2] = target: Trypsin (Homo sapiens, UniProt P07477+P07478+P35030); assay: Inhibition of trypsin (unknown origin); assay type: protein assay
[3] = Half life in monkey; assay type: ADME, organism-based, Macaca mulatta; conditions: rhesus monkey, in vivo
[4] = Drug metabolism in rat liver microsomes assessed as oxidative deamination; assay type: ADME; conditions: read-out: Drug metabolism
[5] = Drug metabolism in rat liver microsomes assessed as N-demethylation; assay type: ADME; conditions: read-out: Drug metabolism
[6] = Drug metabolism in rat liver microsomes assessed as O-demethylation; assay type: ADME; conditions: read-out: Drug metabolism
[7] = system: Homo sapiens; assay: In vivo inhibition of CYP2D6 in patient at 20 mg, qd relative to control; assay type: ADME, organism-based
[8] = system: Homo sapiens; assay: In vivo inhibition of CYP2D6 in patient assessed as inhibition of dextromethorphan to dextrorphan conversion at 20 to 40 mg, qd relative to control; assay type: ADME, organism-based
[9] = Half life in rat; assay type: ADME, organism-based; conditions: in vivo
[10] = Drug metabolism in human; assay type: ADME, organism-based; conditions: in vivo, read-out: Drug metabolism
[11] = Lipophilicity, log D of the compound at pH 7.4; assay type: physicochemical; conditions: buffer
[12] = Half life in human plasma at 600 mg, po; assay type: ADME, organism-based

## Cc1nc(N)ccc1CNC(=O)Cn1c(C)cnc(NCCc2ccccc2)c1=O [L-375378]
[1]
  IC50: 0.8 nM
[2]
  IC50: 1800 nM

## CC(c1ccoc1)N(O)C(N)=O (stereo not drawn)
[3]
  half-life: 3.1 h

## Cc1cnc(NCC(F)(F)c2ccccn2)c(=O)n1CC(=O)NCc1ncccc1F
[2]
  IC50: 252 nM

## COc1ccc([C@H]2Cc3c(cccc3C(F)(F)F)N(CCN(C)C)C(=O)[C@H]2OC(C)=O)cc1
[4]
  metabolised: 53%
[5]
  metabolised: 31%
[6]
  metabolised: 8%

## Fc1ccc([C@@H]2CCNC[C@H]2COc2ccc3c(c2)OCO3)cc1 [PAROXETINE]
[7]
  inhibition (INH): 55%

## Cc1nc(N)ccc1CNC(=O)Cn1c(C)cnc(NCC(F)(F)c2ccccn2)c1=O
[2]
  IC50: 800 nM

## [3H]C1([3H])Oc2ccc(OC[C@@H]3CNCC[C@H]3c3ccc(F)cc3)cc2O1
[8]
  inhibition (INH): 15%

## CS(=O)(=O)c1ccc(-n2nc(C(F)(F)F)cc2-c2ccc(F)cc2)cc1 [SC-58125]
[9]
  half-life: > 220 h

## C[C@H](C#Cc1ccc(Oc2ccc(F)cc2)o1)N(O)C(N)=O
[3]
  half-life: 7.4 h

## [3H]C([3H])([3H])Oc1ccc(C(CN(C([3H])([3H])[3H])C([3H])([3H])[3H])C2(O)CCCCC2)cc1 (stereo not drawn)
[10]
  metabolised: 50%

## CNS(=O)(=O)Cc1ccc2[nH]cc(CCN(C)C)c2c1
[11]
  logD: -1.7

## N#Cc1cnc(NCC(F)(F)c2ccccn2)c(=O)n1CC(=O)NCc1ncccc1F
[1]
  IC50: 2.3 nM
[2]
  IC50: 213 nM

## CC(c1cc2ccccc2s1)N(O)C(N)=O (stereo not drawn) [ZILEUTON]
[3]
  half-life: < 1 h
[12]
  half-life: 3 h
